pEC50, pIC50: −log10 of the molar value.
How the values were obtained:
NS3-NS4 [1] = target: T1, NS3-NS4 (Hepatitis C virus genotype 1a, UniProt P27958); experiment: NS3-NS4 activity, IC50 (Example 37, Table 8); assay type: biochemical
NS3-NS4 [2] = target: T1, NS3-NS4; experiment: cell-based; settings: EC50, NS3-NS4 activity

T1 sequence (P27958 1027-1657): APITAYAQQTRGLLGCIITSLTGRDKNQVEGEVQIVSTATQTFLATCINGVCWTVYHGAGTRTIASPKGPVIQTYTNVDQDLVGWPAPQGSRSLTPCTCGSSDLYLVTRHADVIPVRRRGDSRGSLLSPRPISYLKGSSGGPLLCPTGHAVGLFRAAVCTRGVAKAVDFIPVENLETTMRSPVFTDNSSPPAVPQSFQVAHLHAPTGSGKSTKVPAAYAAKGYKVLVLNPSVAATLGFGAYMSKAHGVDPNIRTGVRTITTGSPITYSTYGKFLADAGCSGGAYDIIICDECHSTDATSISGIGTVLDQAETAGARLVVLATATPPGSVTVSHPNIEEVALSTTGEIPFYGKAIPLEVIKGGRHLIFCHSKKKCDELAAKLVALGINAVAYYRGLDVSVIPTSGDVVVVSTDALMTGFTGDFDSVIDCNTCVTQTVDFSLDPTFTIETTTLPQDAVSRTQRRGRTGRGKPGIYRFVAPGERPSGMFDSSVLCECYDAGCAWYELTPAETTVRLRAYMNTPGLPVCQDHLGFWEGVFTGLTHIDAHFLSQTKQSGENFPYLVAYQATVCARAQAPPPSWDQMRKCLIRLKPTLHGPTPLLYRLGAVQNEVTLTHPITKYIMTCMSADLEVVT
T1 sequence (P27958 1658-1711): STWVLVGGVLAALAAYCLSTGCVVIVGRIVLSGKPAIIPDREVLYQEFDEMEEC

Compound | pIC50 (NS3-NS4 [1]) | pEC50 (NS3-NS4 [2])
CC(C)Oc1ccc(S(=O)(=O)NC(=O)[C@@]23C[C@H]2/C=C\CCCCC[C@H](NC(=O)OC(C)(C)C)C(=O)N2C[C@H](OC(=O)N4Cc5cccc(F)c5C4)C[C@H]2C(=O)N3)cc1 [Compound 356] | > 7.00 | > 7.00
CC(C)(C)OC(=O)N[C@H]1CCCCC/C=C\[C@@H]2C[C@@]2(C(=O)NS(=O)(=O)c2cc(Cl)sc2Cl)NC(=O)[C@@H]2C[C@@H](OC(=O)N3CCc4ccccc4C3)CN2C1=O [Compound 357] | 6.00 to 7.00 | 6.00 to 7.00
Cc1ccccc1S(=O)(=O)NC(=O)[C@@]12C[C@H]1/C=C\CCCCC[C@H](NC(=O)N(C)C(C)(C)C)C(=O)N1C[C@H](OC(=O)N3Cc4cccc(F)c4C3)C[C@H]1C(=O)N2 [Compound 358] | > 7.00 | > 7.00
CN(C(=O)N[C@H]1CCCCC/C=C\[C@@H]2C[C@@]2(C(=O)NS(=O)(=O)c2ccccc2Cl)NC(=O)[C@@H]2C[C@@H](OC(=O)N3Cc4cccc(F)c4C3)CN2C1=O)C(C)(C)C [Compound 359] | > 7.00 | > 7.00
CN(C(=O)N[C@H]1CCCCC/C=C\[C@@H]2C[C@@]2(C(=O)NS(=O)(=O)c2c(Cl)cccc2Cl)NC(=O)[C@@H]2C[C@@H](OC(=O)N3Cc4cccc(F)c4C3)CN2C1=O)C(C)(C)C [Compound 360] | > 7.00 | 6.00 to 7.00
CN(C(=O)N[C@H]1CCCCC/C=C\[C@@H]2C[C@@]2(C(=O)NS(=O)(=O)c2ccc(Cl)cc2)NC(=O)[C@@H]2C[C@@H](OC(=O)N3Cc4cccc(F)c4C3)CN2C1=O)C(C)(C)C [Compound 361] | > 7.00 | > 7.00
CN(C(=O)N[C@H]1CCCCC/C=C\[C@@H]2C[C@@]2(C(=O)NS(=O)(=O)c2c(F)cccc2F)NC(=O)[C@@H]2C[C@@H](OC(=O)N3Cc4cccc(F)c4C3)CN2C1=O)C(C)(C)C [Compound 362] | > 7.00 | 6.00 to 7.00
CC(C)(C)OC(=O)N[C@H]1CCCCC/C=C\[C@@H]2C[C@@]2(C(=O)NS(=O)(=O)c2c(F)cccc2F)NC(=O)[C@@H]2C[C@@H](OC(=O)N3CCc4ccccc4C3)CN2C1=O [Compound 363] | > 7.00 | 5.00 to 6.00
CC(C)(C)OC(=O)N[C@H]1CCCCC/C=C\[C@@H]2C[C@@]2(C(=O)NS(=O)(=O)c2c(F)cccc2F)NC(=O)[C@@H]2C[C@@H](OC(=O)N3Cc4ccccc4C3)CN2C1=O [Compound 364] | > 7.00 | 6.00 to 7.00
O=C(N[C@H]1CCCCC/C=C\[C@@H]2C[C@@]2(C(=O)NS(=O)(=O)C2CC2)NC(=O)[C@@H]2C[C@@H](OC(=O)N3Cc4cccc(F)c4C3)CN2C1=O)OC1CCOCC1 [Compound 401, (2R,6S,13aS,14aR,16aS,Z)-14a-(cyclopropylsulfonylcarbamoyl)-5,16-dioxo-6-((tetrahydro-2H-pyran-4-yloxy)carbonylamino)-1,2,3,5,6,7,8,9,10,11,13a,14,14a,15,16,16a-hexadecahydrocyclopropa[e]pyrrolo[1,2-a][1,4]diazacyclopentadecin-2-yl 4-fluoroisoindoline-2-carboxylate] | > 7.00 | > 7.00
O=C(N[C@H]1CCCCC/C=C\[C@@H]2C[C@@]2(C(=O)NS(=O)(=O)C2CC2)NC(=O)[C@@H]2C[C@@H](OC(=O)N3Cc4cccc(Cl)c4C3)CN2C1=O)O[C@@H]1CCOC1 [Compound 402, (2R,6S,13aS,14aR,16aS,Z)-14a-(cyclopropylsulfonylcarbamoyl)5,16-dioxo-6-(((R)-tetrahydrofuran-3-yloxy)carbonylamino)-1,2,3,5,6,7,8,9,10,11,13a,14,14a,15,16,16a-hexadecahydrocyclopropa[e]pyrrolo[1,2-a][1,4]diazacyclopentadecin-2-yl 4-chloroisoindoline-2-carboxylate] | > 7.00 | > 7.00

From patent publication US20090155209A1, “NOVEL MACROCYCLIC INHIBITORS OF HEPATITIS C VIRUS REPLICATION” (priority 2007, published 2009)
